Assay results as given in US9701676B2, “Pro-neurogenic compounds” (Board of Regents of The University of Texas System, priority 2012, dated 2017).

Test system: proliferating neural precursor cells in the hippocampus (subgranular layer of the dentate gyrus)
Experiment: standard in vivo hippocampal neurogenesis assay (BrdU labelling, week-long intracranial mini-pump infusion)
Design: species or system mouse (C57/B6)
Details: 10 μM concentration, seven days of infusion at 0.5 μL/hour, daily IP BrdU; four 12 week old adult male C57/B6 mice; vehicle 14.5
Experimental: Compounds were administered at a concentration of 10 μM for each molecule. After seven days of infusion at a constant rate of 0.5 μL/hour, a total of 84 μL of volume will have left the pump (0.00084 μMoles) and entered the cerebrospinal fluid. The average volume of a brain from a 12 week old male, C57/B6 mouse in the study is 500 mm^3. […] Under these conditions, at the end of one week of infusion each compound would be present at 1.7 μMolar concentration. Since the actual amount of chemical compound in the brain is likely to be only a fraction of this predicted level, it is reasonable to estimate that compounds were administered at mid to low-nanomolar concentrations.
During compound infusion, animals were intraperitoneally (IP) injected daily with the thymidine analog, bromodeoxyuridine (BrdU), as a means of scoring the birth and survival of proliferating neural precursor cells in the hippocampus. Because both social interaction and voluntary exercise are known to stimulate hippocampal neurogenesis, mice were housed individually without access to running wheels throughout the screening period. Following the week-long period of compound administration, animals were perfused and sacrificed. Dissected brain tissue was fixed, embedded, sectioned, stained with antibodies to BrdU, and evaluated by light microcopy as a means of quantifying neurogenesis and survival of newborn neural precursor cells localized to the subgranular layer of the dentate gyms on the brain hemisphere contralateral to the side of mini-pump cannulation. Every fifth section throughout the entire rostral-caudal extent of the hippocampus was analyzed, and the total number of BrdU+ cells was normalized against the measured volume of the dentate gyms.
Intracranial infusions of either fibroblast growth factor 2 (FGF-2) or artificial cerebral spinal fluid (aCSF) vehicle via the same, week-long protocol were employed as positive and negative controls.
Compounds were evaluated for pro-neurogenic efficacy/neuroprotection in a standard in vivo hippocampal neurogenesis assay at 10 μM concentration in four 12 week old adult male C57/B16 mice.

| SMILES | (×10^−06) BrdU+ cells/mm^3 dentate gyrus |
| --- | --- |
| O=S(=O)(NCC(O)Cn1c2ccc(Br)cc2c2cc(Br)ccc21)C(F)(F)F (stereo not shown) [P7C3-S264, N-(3-(3,6-dibromo-9H-carbazol-9-yl)-2-hydroxypropyl)-1,1,1-trifluoromethanesulfonamide] | 20.6 (×10^−06) BrdU+ cells/mm^3 |
| N[C@@H](Cc1c[nH]c2ccccc12)C(=O)O [P7C3-S248, L-tryptophan, reference compound] | 20.1 (×10^−06) BrdU+ cells/mm^3 |
| COc1ccc2[nH]c3ccc(Br)cc3c2c1 [P7C3-S209, 3-bromo-6-methoxy-9H-carbazole] | 30 (×10^−06) BrdU+ cells/mm^3 |
| O=C(O)CN1c2ccccc2CCc2ccccc21 [P7C3-S210, 2-(10,11-dihydro-5H-dibenzo[b,f]azepin-5-yl)acetic acid] | 21.4 (×10^−06) BrdU+ cells/mm^3 |
| OCCn1c2ccc(Br)cc2c2cc(Br)ccc21 [P7C3-S171, 2-(3,6-dibromo-9H-carbazol-9-yl)ethanol] | 26.2 (×10^−06) BrdU+ cells/mm^3 |
| CCOC(=O)C1=NCc2c(c3ccccc3n2S(=O)(=O)c2ccc(C)cc2)N1 [P7C3-S247, ethyl 5-tosyl-4,5-dihydro-1H-pyrimido[5,4-b]indole-2-carboxylate] | 31.1 (×10^−06) BrdU+ cells/mm^3 |
| OC(CN1c2ccccc2CCc2ccccc21)CN1c2ccccc2CCc2ccccc21 [P7C3-S170, 1,3-bis(10,11-dihydro-5H-dibenzo[b,f]azepin-5-yl)propan-2-ol] | 22.4 (×10^−06) BrdU+ cells/mm^3 |
| N[C@@H](Cc1c[nH]c2ccc(O)cc12)C(=O)O [P7C3-S249, L-5-hydroxy-tryptophan, reference compound] | 34.8 (×10^−06) BrdU+ cells/mm^3 |
| CCC(C)N(C)C(=O)c1cc2ccccc2c(-c2ccccc2Cl)n1 (stereo not shown) [P7C3-S200, PK 11195, reference compound] | 22.1 (×10^−06) BrdU+ cells/mm^3 |
| COc1cccc(N(CC(F)Cn2c3ccc(Br)cc3c3cc(Br)ccc32)S(=O)(=O)c2ccccc2C(F)(F)F)c1 (stereo not shown) [P7C3-S257, N-(3-(3,6-dibromo-9H-carbazol-9-yl)-2-fluoropropyl)-N-(3-methoxyphenyl)-2-(trifluoromethyl)benzenesulfonamide] | 29.4 (×10^−06) BrdU+ cells/mm^3 |
| COc1cccc(N(CC(F)Cn2c3ccc(Br)cc3c3cc(Br)ccc32)S(C)(=O)=O)c1 (stereo not shown) [P7C3-S256, N-(3-(3,6-dibromo-9H-carbazol-9-yl)-2-fluoropropyl)-N-(3-methoxyphenyl)methanesulfonamide] | 31.5 (×10^−06) BrdU+ cells/mm^3 |
| O=C(Cn1c2ccc(Br)cc2c2cc(Br)ccc21)NO [P7C3-S231, 2-(3,6-dibromo-9H-carbazol-9-yl)-N-hydroxyacetamide] | 26.1 (×10^−06) BrdU+ cells/mm^3 |
| COc1ccc2[nH]c(C#N)c(N)c2c1 [P7C3-S276, 3-amino-5-methoxy-1H-indole-2-carbonitrile] | 29.3 (×10^−06) BrdU+ cells/mm^3 |
| CCOC(=O)c1ncc2c(n1)c1ccccc1n2S(=O)(=O)c1ccc(C)cc1 [P7C3-S246, ethyl 5-tosyl-5H-pyrimido[5,4-b]indole-2-carboxylate] | 29 (×10^−06) BrdU+ cells/mm^3 |
| [N-]=[N+]=NCC(F)Cn1c2ccc(Br)cc2c2cc(Br)ccc21 (stereo not shown) [P7C3-S189, 9-(3-azido-2-fluoropropyl)-3,6-dibromo-9H-carbazole] | 13.7 (×10^−06) BrdU+ cells/mm^3 |
| CN(C)C(CF)CN1c2ccccc2CCc2ccccc21 (stereo not shown) [P7C3-S149, 1-(10,11-dihydro-5H-dibenzo[b,f]azepin-5-yl)-3-fluoro-N,N-dimethylpropan-2-amine] | 23.2 (×10^−06) BrdU+ cells/mm^3 |

| SMILES | (×10^−06) BrdU+ cells/mm^3 dentate gyrus |
| --- | --- |
| COc1nc(N(C)C)nc2c3cc(Br)ccc3n(C)c12 [P7C3-S275, 8-bromo-4-methoxy-N,N,5-trimethyl-5H-pyrimido[5,4-b]indol-2-amine] | 20.5 (×10^−06) BrdU+ cells/mm^3 |
| c1ccc2c(c1)CCc1ccccc1N2 [P7C3-S212, iminodibenzyl, reference compound] | 20.5 (×10^−06) BrdU+ cells/mm^3 |
| NCC(O)CN1c2ccccc2CCc2ccccc21 (stereo not shown) [P7C3-S140, 1-amino-3-(10,11-dihydro-5H-dibenzo[b,f]azepin-5-yl)propan-2-ol] | 23.4 (×10^−06) BrdU+ cells/mm^3 |
| OC(CN1c2ccccc2CCc2ccccc21)Cn1c2ccccc2c2ccccc21 (stereo not shown) [P7C3-S133, 1-(9H-carbazol-9-yl)-3-(10,11-dihydro-5H-dibenzo[b,f]azepin-5-yl)propan-2-ol] | 20.2 (×10^−06) BrdU+ cells/mm^3 |
| O=C(O)Cn1c2ccc(Br)cc2c2cc(C(=O)O)ccc21 [P7C3-S239, 6-bromo-9-(carboxymethyl)-9H-carbazole-3-carboxylic acid] | 22.8 (×10^−06) BrdU+ cells/mm^3 |
| COc1cccc(N(CC(O)Cn2c3ccc(Br)cc3c3cc(Br)ccc32)S(=O)(=O)c2ccccc2C(F)(F)F)c1 (stereo not shown) [P7C3-S253, N-(3-(3,6-dibromo-9H-carbazol-9-yl)-2-hydroxypropyl)-N-(3-methoxyphenyl)-2-(trifluoromethyl)benzenesulfonamide] | 28.5 (×10^−06) BrdU+ cells/mm^3 |
| CN(C)c1nc(O)c2[nH]c3ccccc3c2n1 [P7C3-S245, 2-(dimethylamino)-5H-pyrimido[5,4-b]indol-4-ol] | 32.4 (×10^−06) BrdU+ cells/mm^3 |
| OC(CN1c2ccccc2CCc2ccccc21)Cn1ccc2ccccc21 (stereo not shown) [P7C3-S132, 1-(10,11-dihydro-5H-dibenzo[b,f]azepin-5-yl)-3-(1H-indol-1-yl)propan-2-ol] | 22.8 (×10^−06) BrdU+ cells/mm^3 |
| Cc1ccc2c(c1)c1cc(Br)ccc1n2CC(=O)O [P7C3-S240, 2-(3-bromo-6-methyl-9H-carbazol-9-yl)acetic acid] | 28.5 (×10^−06) BrdU+ cells/mm^3 |
| CCCN(CCC)C(=O)Cc1c(-c2ccc(Cl)cc2)nc2ccc(Cl)cn12 [P7C3-S265, 6-Chloro-2-(4-chlorophenyl)-N,N-dipropyl-imidazo[1,2-a]pyridine-3-acetamide, reference compound] | 29.3 (×10^−06) BrdU+ cells/mm^3 |
| Cc1c(C)c2c(c(C)c1O)CC[C@@](C)(CCC[C@H](C)CCC[C@H](C)CCCC(C)C)O2 [P7C3-S267, (+)-a-tocopherol, reference compound] | 21.4 (×10^−06) BrdU+ cells/mm^3 |
| Cc1ccc2c(c1)c1cc(Br)ccc1n2C [P7C3-S280, 3-bromo-6,9-dimethyl-9H-carbazole] | 25.1 (×10^−06) BrdU+ cells/mm^3 |
| CCOC(=O)c1ncc2[nH]c3ccccc3c2n1 [P7C3-S262, ethyl 5H-pyrimido[5,4-b]indole-2-carboxylate] | 18 (×10^−06) BrdU+ cells/mm^3 |
| O=C(O)Cn1c2ccc(Br)cc2c2cc(C(=O)O)ncc21 [P7C3-S227, 6-bromo-9-(carboxymethyl)-9H-pyrido[3,4-b]indole-3-carboxylic acid] | 25.8 (×10^−06) BrdU+ cells/mm^3 |
| COc1cccc(NCC(O)CN2c3ccccc3CCc3ccccc32)c1 (stereo not shown) [P7C3-S158, 1-(10,11-dihydro-5H-dibenzo[b,f]azepin-5-yl)-3-((3-methoxyphenyl)amino)propan-2-ol] | 25 (×10^−06) BrdU+ cells/mm^3 |
